Key:
[1] = biological target: RIPK1 recombination protein (Homo sapiens (Human), UniProt Q13546); experiment: RIPK1 kinase activity assay (ADP-Glo); type: biochemical; conditions: RIPK1 kinase activity, ADP-Glo, 10 μM ATP
Experimental: RIPK1 recombination protein: synthesized by Shanghai Medicilon Inc. under the commission by Hutchison MediPharma Limited (50 g of cell pellet was resuspended in 250 mL of lysis buffer (50 mM Tris, pH 7.5, 250 mM NaCl, 1 mM DTT, protease inhibitor 1:50), the cells were ultrasonically lysed using a sonicator (the power set to 4) on ice for 3×30 minutes; then centrifugation was carried out at 4° C., at 15,000 g for 30 minutes to clarify the suspension, the soluble pellet was resuspended into 10 mL of glutathione agarose, and incubated at 4° C. for 2 hours; then the beads were loaded into the column and washed with lysis buffer (no protease inhibitors) to baseline, and eluted with 20 mM of reduced glutathione (50 mM Tris, pH 8). The fractions identified by SDS-PAGE as containing the protein of interest were collected (10 mL of total volume), concentrated to about 5 mL and loaded into 300 mL superdex75 column (GE Healthcare) equilibrated with buffer (50 mM Tris, pH 7.5, 150 mM NaCl, 1 mM DTT, 10% glycerol, pH 7.5). RIP1 protein was eluted as a dimer from the superdex75 column. The protein concentration was determined by the Bradford assay using BSA as the standard. The yield was 12.5 mg at 0.63 mg/mL. The protein was aliquoted and frozen at −80° C. for later use.
ADP-Glo Kinase kit can be used to measure ADP level in kinase activity assay so as to distinguish the inhibitory effects of different compounds on RIPK1 kinase activity. The ADP-Glo assay was usually divided into three steps. Firstly, the kinase converted ATP to ADP and phosphorylated the substrate at the same time; secondly, ATP digestion reagent was added to degrade all ATP in the reaction system; finally, a detection reagent was added to reduce ADP to ATP, and energy from ATP was transferred to […] which thus emitting a chemical luminescence that can be detected. Assay procedure can refer to manufacture's technical manual.
(2) Reagent Preparation: • 1.33× kinase buffer: 5× kinase buffer stock (250 mM of NaCl, 150 mM of MgCl2, 2.5 mg/ml BSA (bovine serum albumin), 0.1% CHAPS (3-[(3-cholamidopropyl)-dimethyl-ammonio]-1-propane sulfonate), and 5 mM of dithiothreitol) was diluted with water to 1.33× kinase buffer; • RIPK1 enzyme solution: the kinase was dissolved in 1.33× kinase buffer to make 40 nM as the final working concentration; • ATP solution: 10 mM ATP stock solution in water was dissolved in 1.33× kinase buffer to make 10 μM as the final working concentration; • 4× compound preparation: the compound was diluted in a 3-fold gradient, and finally 4% DMSO aqueous solution containing different concentrations of the compound was obtained. The final concentrations of the test compound were 10, 3.33, 1.11, 0.37, 0.12, 0.04, 0.014, and 0.005 μM.
The assay set up two control groups, one was 100% inhibition group (no enzyme treatment), another was 0% inhibition group (no inhibitor treatment), each control group contained 8 replicate wells. 2.5 μl of serially diluted compound was added to each well of a 384-well plate, with double replicate wells, and 4% DMSO solution was added to control wells. Then 5 μl of RIPK1 enzyme solution was added to each well except 100% inhibition control, 5 ul of buffer was added to 100% inhibition control, after that, 2.5 μl of ATP solution was added to all wells, the plate was vibrated at 1000 rpm for 30 seconds to perform transient centrifuge; finally the 384-well assay plate was put in the shaking incubator, and incubated at room temperature for 3 hours. After the enzymatic reaction was completed, 5 μl of ATP depletion reagent was added to each well, the mixture was centrifuged transiently, then the 384-well assay plate was put in the shaking incubator, and incubated at room temperature for 1 hour. 5 μl of ADP detection reagent was added to each well, and the mixture was centrifuged transiently, and incubated at room temperature for 0.5 hour. […]

[2] = system: U937 cell line (human histiocytic lymphoma cell line); experiment: U937 cell viability assay (TNF-α + Z-VAD-FMK induced necroptosis); type: cell-based; conditions: Homo sapiens, U-937; U937 cells, hTNF-α 0.1 μg/mL + Z-VAD-FMK 50 μM, 20 hours, CellTiter-Glo
Experimental: U937 cell line (human histiocytic lymphoma cell line): purchased from ATCC (American Type Culture Collection) Cell Bank, cultured in a 5% CO2, 37° C. incubator, and RPMI 1640 medium which contains L-glutamine, 1.5 g/L sodium bicarbonate, 2.383 g/L HEPES solution, 0.11 g/L sodium pyruvate and 4.5 g/L glucose, plus 10% fetal bovine serum (FBS) was used. • RPMI 1640 medium: GIBCO, Cat #A10491-01; • Fetal bovine serum (FBS): GIBCO, Cat #10099-141C; • Dimethyl sulfoxide (DMSO): Sigma, Cat #D2650; • Recombinant Human TNF-alpha Protein (hTNF-α): R&D system, Cat #210-TA-100; • Pan-Caspase inhibitor (Z-VAD-FMK): Selleckchem, Cat #S7023; • CellTiter-Glo 2.0 Cell Viability Assay kit: Promega, Cat #G9242; • Microwell plate reader: Envision, Perkin Elmer; • 96-well plate: Corning, Cat #3917.
The U937 cells at the logarithmic phase were taken out, centrifuged to remove the medium, washed with PRMI 1640 medium containing 1% FBS, and diluted with 1% FBS-containing RPMI 1640 medium to 2.5×10^5 cells/ml, inoculated at 70 μL/well into a 96-well plate, i.e., 1.75×10^4 cells/well. The plate was cultured in a 5% CO2, 37° C. cell incubator. After incubating for 1 hour, the test compound was diluted to the corresponding concentrations using DMSO with 3-fold serial dilution, then the corresponding concentration of DMSO diluted solution was diluted into 1% FBS-containing RPMI 1640 medium, and 10 μL/well of the diluted test compound with different concentrations (final concentration of test compound was 1.0, 0.333, 0.111, 0.037, 0.012, 0.004, 0.0014 and 0.0005 μM, while final concentration of DMSO was 0.3%) or 10 μL/well control solution (3% DMSO) were added to the cell culture system respectively, with the total volume being 80 μL/well; Then 10 μL of Z-VAD-FMK solution diluted with 1% FBS-containing RPMI 1640 medium (final concentration of 50 μM) or 10 μL of control solution (2.5% DMSO) was added to each well, with the total volume being 90 μL/well. The plate was incubated in a 5% CO2, 37° C. cell culture incubator for 1 hour.
(§1) After being cultured for 1 hour, 10 μL of human recombinant TNF-α protein diluted with 1% FBS-containing RPMI 1640 medium (final concentration of 0.1 μg/mL) or 10 μL/well control solution (1% FBS-containing RPMI 1640 medium) was added to each well. The plate was incubated in a 5% CO2, 37° C. cell culture incubator for 20 hours.
(§2) The cell culture plate was taken out from the incubator, and left to stand at room temperature for 30 minutes. Meanwhile, CellTiter-Glo viability assay kit was put from freezer to room temperature, and 50 μL of CellTiter-Glo reagent was added to all wells, the plate was shaken for 1 minutes, protected from light at room temperature for 10 minutes then read the plate on Envision to get the luminescence signal.
(§3) The 96-well plate in the dark was taken out, and the chemiluminescence was determined using the Envision microwell plate reader as the signal value of each well.
(§4) The mean signal value of the wells of the mixed solution of recombinant human TNF-alpha protein (final concentration of 0.1 μg/mL) and Pan-Caspase inhibitor (final concentration of 50 μM) was used as the lower value, and the mean signal value of the wells without stimulation was used as the upper value. According to the signal value of each well, the inhibition rate of each concentration of every compound was calculated, and the IC50 value of compound was obtained by Model 205 in XL-Fit 5.3 software (ID Business Solutions Limited).
(§5) Inhibition rate %=[(Luminescence readout of treated compound−Luminescence readout of positive control)/(Luminescence readout of negative control−Luminescence readout of positive control)]×100%, wherein

[3] = system: L929 cell line (mouse fibroblastoma cell line); experiment: L929 cell viability assay (mTNF-α + Z-VAD-FMK induced necroptosis); type: cell-based; conditions: Mus musculus, L929, 20 h, L929 cells, mTNF-α 0.1 μg/mL + Z-VAD-FMK 5 μM, CellTiter-Glo
Experimental: L929 cell line (mouse fibroblastoma cell line): purchased from ATCC (American Type Culture Collection) Cell Bank, cultured in 5% CO2, 37° C. incubator, and MEM medium which contains L-Glutamine, with 10% FBS was used. • MEM medium: GIBCO, Cat #11095080; • Fetal bovine serum (FBS): GIBCO, Cat #10099-141C; • Dimethyl sulfoxide (DMSO): Sigma, Cat #D2650; • 0.25% Trypsin-EDTA: GIBCO, Cat #25200072; • Recombinant Mouse TNF-alpha Protein (mTNF-α): R&D system, Cat #410-MT-050; • Pan-Caspase inhibitor (Z-VAD-FMK): Selleckchem, Cat #S7023; • CellTiter-Glo 2.0 Cell Viability Assay kit: Promega, Cat #G9242; • Microwell plate reader: Envision, Perkin Elmer; • 96-well plate: Corning, Cat #3917.
The L929 cells at the logarithmic phase were taken out, and the supernatant was discarded. After trypsinization and cell shedding, 10% FBS-containing medium was added for neutralization, and the supernatant was discarded after centrifugation. The cells were re-suspended using 10% FBS-containing medium, adjusted to 7×10^4 cells/ml, added to 96-well microplate at 70 μL/well, i.e., 4.9×10^3 cells/well. Then the plate was incubated in a 5% CO2, 37° C. cell incubator overnight.
After incubating overnight, the 96-well plate was taken out, the medium was discarded, and the plate was washed with 1% FBS-containing MEM medium. Then 1% FBS-containing MEM medium was added at 70 μL/well, and the plate was cultured in a 5% CO2, 37° C. cell incubator. After incubating for 1 hour, the test compound was diluted to the corresponding concentrations using DMSO with 3-fold serial dilution, then the corresponding concentration of DMSO diluted solution was diluted into 1% FBS-containing MEM medium, and 10 μL/well of the diluted test compound with different concentrations (final concentrations of test compound were 10, 3.33, 1.11, 0.37, 0.12, 0.04, 0.014 and 0.005 μM, while final concentration of DMSO was 0.3%) or 10 μL/well control solution (3% DMSO) were added to the cell culture system respectively, with the total volume being 80 μL/well. Then 10 μL of Z-VAD-FMK solution diluted with 1% FBS-containing MEM medium (final concentration of 5 μM) or 10 μL of control solution (2.5% DMSO) was added to each well, with the total volume being 90 μL/well. The plate was incubated in a 5% CO2, 37° C. cell culture incubator for 1 hour.
as §1, with “incubating” for “being cultured”, “of” for “of human”, “recombinant mouse” for “recombinant”, “protein solution” for “protein”, “MEM” for “RPMI 1640”, “μL” for “μL/well”
as §2, §3
as §4, with “recombinant mouse” for “recombinant human”, “of 5” for “of 50”
as §5

RIPK1 recombination protein, sequence (Q13546 other isoform, or with tags, fused parts or gaps): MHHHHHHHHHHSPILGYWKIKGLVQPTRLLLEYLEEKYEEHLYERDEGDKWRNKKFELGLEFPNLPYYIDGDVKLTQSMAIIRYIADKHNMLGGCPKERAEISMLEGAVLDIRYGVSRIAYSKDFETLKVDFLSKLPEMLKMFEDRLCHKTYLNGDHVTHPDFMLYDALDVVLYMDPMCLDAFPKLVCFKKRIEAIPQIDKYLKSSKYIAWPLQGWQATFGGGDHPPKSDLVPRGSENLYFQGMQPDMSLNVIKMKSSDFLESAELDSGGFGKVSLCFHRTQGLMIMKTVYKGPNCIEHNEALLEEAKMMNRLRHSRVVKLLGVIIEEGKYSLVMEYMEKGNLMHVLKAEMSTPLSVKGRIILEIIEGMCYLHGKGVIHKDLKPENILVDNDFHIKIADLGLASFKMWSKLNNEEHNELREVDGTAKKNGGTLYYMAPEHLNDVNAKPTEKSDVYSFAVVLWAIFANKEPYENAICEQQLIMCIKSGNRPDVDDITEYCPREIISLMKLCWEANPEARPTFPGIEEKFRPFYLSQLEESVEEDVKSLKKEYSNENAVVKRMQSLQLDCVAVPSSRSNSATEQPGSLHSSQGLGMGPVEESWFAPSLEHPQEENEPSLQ

| IC50 [1] [nM] | SMILES | IC50 [2] [nM] | IC50 [3] [nM] |
| --- | --- | --- | --- |
| 46 | Cc1cc(C2(NC(=O)c3ncc4cnn(C(C)C)c4n3)CC2)ccc1-c1cncn(C)c1=O [Compound 27] | 102 |  |
| 53 | Cn1cncc(-c2ccc(C3(NC(=O)c4n[nH]c(Cc5ccccc5)n4)CC3)c(F)c2)c1=O [Compound 48] | 39 |  |
| 121 | Cn1cncc(-c2ccc(C3(NC(=O)c4nc5n(n4)[C@H](c4ccccc4)CC5)CC3)cc2)c1=O [Compound 53, (S)—N-(1-(4-(1-methyl-6-oxo-1,6-dihydropyrimidin-5-yl)phenyl)cyclopropyl)-5-phenyl-6,7-dihydro-5H-pyrrolo[1,2-b][1,2,4]triazole-2-carboxamide] | 554 |  |

Further lines, the compound ahead of its results:

| SMILES | IC50 [1] [nM] | IC50 [2] [nM] | IC50 [3] [nM] |
| --- | --- | --- | --- |
| Cn1c(N)ncc(-c2ccc(C3(NC(=O)c4nnc(Cc5ccccc5)[nH]4)CC3)cc2)c1=O [Compound 7] | 39 | 68 |  |
| CC(C)n1cncc(-c2ccc(C3(NC(=O)c4nnc(Cc5ccccc5)[nH]4)CC3)cc2)c1=O [Compound 14] |  | 3 | 181 |
| CC(C)n1ncc2cnc(C(=O)NC3(c4ccc(-c5cncn(C)c5=O)c(C(F)(F)F)c4)CC3)nc21 [Compound 24] | 89 | 161 |  |
